Columns and labels:
[1] = Fluorescence titration of sensor with dopamine; type: binding; settings: for Ka: pH 5.0, 37° C.
Protocol: Fluorescence spectra were recorded on a Shimadzu RF-5301 PC spectrofluorometer at 37° C. A 1 mg/mL stock solution of I-2 in DMSO was prepared. A stock solution of I-2 in buffer (1×10^−5 M, 25 mM HEPES, 50 mM Na2S2O3, pH=5.0) was prepared. Norepinephrine, dopamine, epinephrine, and glutamate stock solutions were prepared by separately dissolving the analytes at the concentration to be used in the titration with the buffered stock solution of I-2 (thus avoiding dilution of I-2 during the experiment). I-2 was titrated with aliquots of analyte solution. The sensor was excited at 488 nm with slit widths of 5 nm.
Fluorescence spectra were recorded on a Shimadzu RF-5301 PC spectrofluorometer at 37° C. A separate 1 mg/mL stock solution of each coumarin-3-aldehyde derivative in DMSO was prepared. An aqueous stock solution of each derivative (10 μM) in buffer (25 mM HEPES, 50 mM Na2S2O3, pH=5.0) was prepared. Norepinephrine, dopamine, glutamate, and epinephrine stock solutions were prepared by separately dissolving the solid analytes at the concentration to be used in the titration with the buffered stock solutions described above and thus, avoiding dilution of the sensor during the experiment. The benzene-based NS521 derivatives were excited at 488 nm. The thiophene-based derivatives were excited at 515 nm.

[2] = Fluorescence titration of sensor with lysine; type: binding; settings: amine guest lysine
[3] = Fluorescence quantum yield, unbound fluorophore; type: physicochemical; settings: no amine guest (sensor alone)
Protocol: Steady-state fluorescence spectroscopic studies were performed using a Horiba Scientific Fluorolog-3 Model FL3C-111 spectrofluorometer and data was collected and analyzed using HJY FluorEssence™ 3.5.1.20 software package. UV-visible spectra were obtained on a Varian Cary 1E UV-visible spectrophotometer. A stock solution of each benzene- or thiophene-based coumarin-3-aldehyde derivative (1 μM) in buffer (25 mM HEPES, 50 mM Na2S2O3, pH=5.0) was prepared. Each solution contained 1% (v/v) DMSO as a cosolvent except as noted. The slit width was 2 nm for both excitation and emission. The bound benzene- and thiophene-coumarin-3-aldehyde derivatives contained 500 mM glutamate (pH=5.0).
To determine the relative quantum yield of fluorescence (Φfl) for the benzene-based derivatives, a 1.0 μM solution of fluorescein (absolute Φfl=0.85) in 0.1 N NaOH (pH 13) was used as a fluorescence standard. The unbound derivatives were excited at 473 nm and the bound derivatives were excited at 488 nm. To determine the relative quantum yield of fluorescence (Φfl) for the thiophene-based derivatives, a 1.0 μM solution of rhodamine B (absolute Φfl=0.31) in water (pH 7) was used as a fluorescence standard. The unbound derivatives were excited at 473 nm and the bound derivatives were excited at 515 nm. Quantum yields were obtained in triplicate and calculated as per the following equation: […]

[4] = Table 2, analyte dopamine, benzene-based compounds I, excited at 488 nm

Quantum Yield (Φ) [3]: 0.0029
Structure (SMILES): CCN(CC)c1ccc2c(-c3ccc(OC)cc3)c(C=O)c(=O)oc2c1 [Compound I-2, 7-diethylamino-3-formyl-4-(4′-methoxyphenyl)coumarin]
F.E. [1, 4]: 2.98 | Ka [1, 4]: 112.10 M⁻¹ | Ka ([1]; amine guest dopamine, fluorescence spectroscopy, λex = 488 nm, λem = 521 nm): 112 M⁻¹ | Isat/Io (λex = 488 nm) ([1]; amine guest dopamine, intensity at saturation from fit to binding isotherm): 3.0 | Ka ([2]; fluorescence spectroscopy, λex = 488 nm, λem = 521 nm): 11 M⁻¹ | Isat/Io (λex = 488 nm) ([2]; intensity at saturation from fit to binding isotherm): 15.1
